Active and inactive are the calls of the source. The rule behind the calls is not given here.
Tests used:
Assay type in all cases: functional, cell-based
[1] = system: A549; experiment: Growth inhibition in A549 cells at 100 uM by MTT assay; settings: Homo sapiens
[2] = system: A549; experiment: Growth inhibition in A549 cells at 25 uM after 48 hrs by MTT assay; settings: Homo sapiens
[3] = system: A549; experiment: Growth inhibition in A549 cells at 25 uM after 24 hrs by MTT assay; settings: Homo sapiens
[4] = system: A549; experiment: Growth inhibition in A549 cells at 50 uM by MTT assay; settings: Homo sapiens
[5] = system: A549; experiment: Growth inhibition in A549 cells after 48 hrs by MTT assay; settings: Homo sapiens, A549, 48 h
[6] = system: A549; experiment: Effect on cell morphology in A549 cells assessed as induction of cellular vacuolation; settings: Homo sapiens
[7] = system: A549; experiment: Effect on cell morphology in A549 cells assessed as induction of differentiation at 50 uM; settings: Homo sapiens
[8] = system: A549; experiment: Growth inhibition in A549 cells at 12.5 uM after 48 hrs by MTT assay; settings: Homo sapiens

Structure (SMILES) | IC50 [5] [µM] | Activity [1] | Activity [2] | Activity [3] | Activity [4] | Activity [6] | Activity [7] | Activity [8]
CCOC(=O)c1cc(-c2ccccc2)nn1CC(O)COc1ccccc1OC (stereo unspecified) | 58 | Active | inactive | Active | Active |  |  | 
CCOC(=O)c1cc(-c2ccc(OC)cc2)nn1CC(O)COc1ccccc1[N+](=O)[O-] (stereo unspecified) | 45 | Active |  |  | Active |  |  | 
CCOC(=O)c1cc(-c2ccc(OC)cc2)nn1CC(O)COc1ccccc1 (stereo unspecified) | 33 | Active | Active |  | Active |  |  | 
CCOC(=O)c1cc(-c2ccc(OC)cc2)nn1CC(O)COc1ccc(Cl)cc1 (stereo unspecified) | 38 | Active |  |  | Active |  |  | 
CCOC(=O)c1cc(-c2ccc(Cl)cc2)nn1CC(O)COc1ccc([N+](=O)[O-])cc1 (stereo unspecified) | 45 | Active | inactive | Active | Active |  |  | Active
CCOC(=O)c1cc(-c2ccc(Cl)cc2)nn1CC(O)COc1ccccc1[N+](=O)[O-] (stereo unspecified) | 26 | Active | inactive | Active | Active |  |  | Active
CCOC(=O)c1cc(-c2ccccc2)nn1CC(O)COc1ccc([N+](=O)[O-])cc1 (stereo unspecified) | 48 | Active | inactive | Active | Active |  |  | 

Second part, led by results:

IC50 [5] [µM] | Structure (SMILES) | Activity [1] | Activity [2] | Activity [3] | Activity [4] | Activity [6] | Activity [7] | Activity [8]
65 | CCOC(=O)c1cc(-c2ccccc2)nn1CC(O)COc1ccccc1 (stereo unspecified) | Active | Active |  | Active |  |  | 
33 | CCOC(=O)c1cc(-c2ccc(Cl)cc2)nn1CC(O)COc1ccc(Cl)cc1 (stereo unspecified) | Active | Active |  | Active | Active |  | 
68 | CCOC(=O)c1cc(-c2ccc(OC)cc2)nn1CC(O)COc1ccccc1OC (stereo unspecified) | Active |  |  | Active |  |  | 
27 | CCOC(=O)c1cc(-c2ccc(Cl)cc2)nn1CC(O)COc1ccccc1 (stereo unspecified) | Active | inactive | Active | Active |  | Active | Active
44 | CCOC(=O)c1cc(-c2ccc(OC)cc2)nn1CC(O)COc1ccc([N+](=O)[O-])cc1 (stereo unspecified) | Active |  |  | Active |  |  | 
59 | CCOC(=O)c1cc(-c2ccccc2)nn1CC(O)COc1ccc(Cl)cc1 (stereo unspecified) | Active |  |  | Active |  |  | 
32 | CCOC(=O)c1cc(-c2ccc(Cl)cc2)nn1CC(O)COc1ccccc1OC (stereo unspecified) | Active | Active |  | Active |  |  | 
30 | CCOC(=O)c1cc(-c2ccccc2)nn1CC(O)COc1ccccc1[N+](=O)[O-] (stereo unspecified) | Active | inactive | Active | Active |  |  | 
